In assay [1] the test system is Venus-C-RAF / CFP-K-RAS in HEK293T cells. Nature of the assay: C-RAF plasma membrane translocation, live cell confocal imaging. Format: cell-based. More on the design: dose or concentration left out as unconfirmed. The source says:
Aliquots of the membrane and cytosolic fractions were immunoblotted with the indicated antibodies. (B) HEK293T cells were transiently transfected with Venus-C-RAF (green), CFP-K-RAS (red) and mCherry-H2B (blue).

The next assay deals with B-RAFV600E cells. Nature of the assay: Cellular proliferation of B-RAFV600E cells in presence of EGF, single agents and combinations. In kind it is cell-based. The conditions noted are these: in combination with RAF inhibitor; 20 ng/ml EGF in the media. On the procedure: (A) Cells were treated with […] compound in serum free media for 1 hour. For stimulation 20 ng/ml EGF was added for 5 min before cells were lysed. Lysates were transferred to an MSD plate where phospho- and total MEK levels were measured. […] Cells were dosed with indicated inhibitors, either alone or in combination in the presence of 20 ng/ml EGF in the media.

For assay [2], the system named is pERK in BRAF V600E cells expressing EGFR. Nature of the assay: pERK MSD assay, basal and EGF-stimulated. Format: cell-based. The conditions noted are these: serum starved, -EGF or +EGF. On the procedure:
(A) Table of genotype and EGFR levels among lines tested. (B) Measurement of basal and stimulated pERK levels: cells were treated with […] compound in serum free media for 1 hour. For stimulation 20 ng/ml EGF was added for 5 min before cells were lysed. Lysates were transferred to an MSD plate where phospho- and total ERK levels were measured. (C) pERK IC50 data are plotted for the two Raf inhibitors (CHR-265, 1-methyl-5-[[2-[5-(trifluoromethyl)-1H-imidazol-2-yl]-4-pyridinyl]oxy]-N-[4-(trifluoromethyl)phenyl]-1H-Benzimidazol-2-amine and GDC-0879) under basal and EGF-stimulated conditions.
FIG. 29 summarizes certain RAF inhibitor (GDC-0879, PLX-4720 and “Raf inh a” which is 2,6-difluoro-N-(3-methoxy-1H-pyrazolo[3,4-b]pyridin-5-yl)-3-(propylsulfonamido)benzamide) potencies for blocking cellular pERK induction in response to EGF stimulation.

In assay [3] the test system is HT-29 BRAF V600E human colorectal carcinoma xenografts. The experiment in a line: HT-29 xenograft combination efficacy. The conditions noted are these: RAF inh a and Tarceva given in combination. In kind it is in vivo, NCR nude (Taconic) mice. The procedure:
(§1) In FIG. 34A, RAF inh a was given at 100 mg/kg with increasing doses of Tarceva. In FIG. 34B, Tarceva was given to all animals with increasing concentrations of RAF inh a. […] In FIG. 34C, lysates from tumors treated with the indicated doses of inhibitors in FIGS. 34A and B were analyzed for phospho-ERK (pERK) levels by western blot.

In assay [4] the test system is phospho-ERK (pERK) levels in HT-29 tumors. Nature of the assay: phospho-ERK western blot of HT-29 tumor lysates. In kind it is in vivo. To be noted: RAF inhibitor a and Tarceva co-administered in mice. On the procedure:
as §1
In general terms: In western blotting, separated proteins are transferred to a membrane and probed.

A further assay concerns CX-1 cells. The experiment in a line: Combination study of RAF inhibitor and Tarceva in colon tumor lines. The conditions noted are these: Tarceva administered together with RAF inhibitor; CX-1 (high EGFR). Format: cell-based. The text has this:
FIGS. 32A-C depict combination studies of RAF inhibitor and EGFR inhibitor (Tarceva) in colon tumor lines with different levels of EGFR expression.
In FIG. 32C, the effects of combination treatment of CX-1 cells with either RAF inhibitor alone, Tarceva alone or combination of RAF inhibitor and Tarceva are shown. Neither RAF inhibitor alone nor Tarceva alone suppress proliferation as effectively as the combination. Both inhibitors show good synergy when administered together to CX-1 cells.

Turning to `Cc1ccc(NC(=O)c2cccc(C(C)(C)C#N)c2)cc1Nc1ccc2ncn(C)c(=O)c2c1` [AZ-628, 3-(2-cyanopropan-2-yl)-N-(4-methyl-3-(3-methyl-4-oxo-3,4-dihydroquinazolin-6-ylamino)phenyl)benzamide], the “Venus-tagged C-RAF membrane translocation” value in assay [1] is reported as “co-localizes with CFP-KRAS on the plasma membrane”.
Take `O=C(NOC[C@H](O)CO)c1ccc(F)c(F)c1Nc1ccc(I)cc1F` [PD-0325901]: the “resistance of cellular proliferation to RAF inhibitors under EGF” value with B-RAFV600E cells is given as “overcomes that resistance”.
On to `CCCS(=O)(=O)Nc1ccc(F)c(C(=O)c2c[nH]c3ncc(Cl)cc23)c1F` [PLX4720, N-[3-[(5-chloro-1H-pyrrolo[2,3-b]pyridin-3-yl)carbonyl]-2,4-difluorophenyl]-1-propanesulfonamide], for which the “blocking wildtype RAF signaling / selectivity (pERK induction in response to EGF)” value in assay [2] is given as “BRAF V600E selective”.
With `CCCS(=O)(=O)Nc1ccc(F)c(C(=O)Nc2cnc3[nH]nc(OC)c3c2)c1F` [Raf inh a, 2,6-difluoro-N-(3-methoxy-1H-pyrazolo[3,4-b]pyridin-5-yl)-3-(propylsulfonamido)benzamide], the “antitumor efficacy in combination” value in assay [3] is recorded as “Increased efficacy”. For the same compound, the “phospho-ERK levels in the tumors” value in assay [4] is “synergized in decreasing phospho-ERK levels”. In addition, the “blocking wildtype RAF signaling / selectivity (pERK induction in response to EGF)” value in assay [2] was “BRAF V600E selective”.
For `C#Cc1cccc(Nc2ncnc3cc(OCCOC)c(OCCOC)cc23)c1` [Tarceva, erlotinib], the “antitumor efficacy in combination” value in assay [3] is “Increased efficacy”. For the same compound, in assay [4], the “phospho-ERK levels in the tumors” value is recorded as “synergized in decreasing phospho-ERK levels”. Further, the “resistance of cellular proliferation to RAF inhibitors under EGF” value in the assay on B-RAFV600E cells is “overcomes that resistance”. Also, the “suppression of proliferation, combination effect” value with CX-1 cells is “good synergy”.

Values taken from patent US20150164895A1, “DETERMINING SENSITIVITY OF CELLS TO B-RAF INHIBITOR TREATMENT BY DETECTING KRAS MUTATION AND RTK EXPRESSION LEVELS” (GENENTECH, INC., priority 2009, published 2015).
